Laboratory results as given in patent US8377945B2, “Small molecule inhibitors of spleen tyrosine kinase (SYK)” (Rigel Pharmaceuticals Inc., priority 2009, dated 2013).

Assays:
[1] = tested on: Human mast cells (CHMC cells); experiment: Tryptase release assay (mast cell degranulation induced by anti-IgG FcγR cross-linking); type: cell-based; conditions: IC50 of tryptase release from human mast cells after anti-IgG stimulation, read-out: LD Tryptase
Protocol: Compounds were assayed for inhibition of mast cell activation induced by FcγR cross-linking by measuring the activity of tryptase released upon degranulation as follows:
Human mast cells were cultured and differentiated from […] progenitor cell as described in U.S. Patent Publication No. 2005-234049, incorporated herein by reference. For example, 65 μl of various concentrations of the compound to be assayed were prepared in MT (137 mM NaCl, 2.7 mM KCl, 1.8 mM CaCl2, 1.0 mM MgCl2, 5.6 mM Glucose, 20 mM Hepes (pH 7.4), 0.1% Bovine Serum Albumin, (Sigma A4503)) containing 2% MeOH and 1% DMSO, or control buffer were added to duplicate 96-well V-bottom plates. Pelleted and resuspended (in warm MT) CHMC cells (65 μl) were added to each 96-well plate, mixed and incubated for 1 hour at 37° C. 25 μl of 6× anti-IgG Rabbit anti-human IgG, Affinity purified (Bethyl Laboratories Cat No. A80-105A3) final concentration 1 μg/ml, was added to the test wells. MT (25 μl) was added to control wells. After a 60-minute incubation at 37° C., cells and cell debris were pelleted by centrifugation at 1000 rpm for 10 min and tryptase and leukotriene C4 levels were measured.
To measure tryptase levels, 25 μl of supernatant from each well was transferred to a fresh 96-well black bottom plate, to which 100 μl of fresh tryptase substrate solution [(Z-Ala-Lys-Arg-AMC2TFA; Enzyme Systems Products, #AMC-246)] 1:2000 in tryptase assay buffer [0.1 M Hepes (pH 7.5), 10% w/v Glycerol, 10 μM Heparin (Sigma H-4898) 0.01% NaN3] was added. After 30 minute incubation at room temperature, the optical density of the plates is measured at 355 nm/460 nm on a spectrophotometric plate reader. Table 2 provides the IC50 values.

Syk kinase = target: T1, Syk kinase (Homo sapiens, UniProt P43405); experiment: ELISA-based Syk kinase assay (phosphorylation of HS1 peptide substrate by isolated Syk kinase); type: biochemical; conditions: IC50 of Syk kinase inhibition; 2 μM ATP, 2 μM peptide substrate
T1 construct: purchased Millipore 14-314
Protocol: Compounds were tested for the ability to inhibit Syk kinase catalyzed phosphorylation of a peptide substrate in an assay with isolated Syk kinase.
An assay was carried out in a Costar white 96 well plate (Fisher Scientific, Cat No. 07-200-591) coated overnight with 0.01 mg/ml Neutravidin (Pierce, 100 μl/well) at 4° C. Neutravidin pre-coated 96 well plates were blocked with 2% BSA in PBST buffer for at least 1 hour before starting the assay at room temperature. Serially diluted compound stock solution containing a subject compound was prepared separately in DMSO solution starting from 300 μM and 2 μl of this diluted compound (3% DMSO final concentration) was added directly to neutravidin coated assay plate containing 55.5 μl/well of kinase reaction buffer composed of 20 mM HEPES, pH 7.4, 5 mM MgCl2, 2 mM MnCl2, 1 mM DTT, 0.01% Tween 20 pre-mixed with ATP and kinase substrate (HS1 peptide). Reaction was initiated by adding of 2.5 μl/well Syk kinase (Millipore, Cat No. 14-314) resulting in a final reaction volume of 60 μl and then the reaction was allowed to continue for 30 minutes at room temperature. Final enzyme reaction conditions were 20 mM HEPES, pH 7.4, 5 mM MgCl2, 2 mM MnCl2, 1 mM DTT, 0.01% Tween 20, 0.25 ng Syk, 2 μM ATP, 2 μM peptide substrate (Biotin-EQEDEPEGDYEEVLE-CONH2, SynPep Corporation). After completing the reaction, assay plate was washed three times with PBST and incubated for 1 hour at room temperature with 100 μl/well of phosphopeptide detection antibody solution prepared by mixing 1-1000 diluted mouse anti-pTyr monoclonal antibody (Cell Signal Technology, Cat No. 9411) and 1-1000 diluted goat HRP-conjugated anti-mouse IgG (Jackson Immunoresearch, Cat. No. 115-035-003). Before developing the plate with supersignal ELISA pico chemiluminescent substrate (Pierce), plate was washed three times again with PBST and were read on a SpectraMax M5 microplate reader (Moleculear Devices).

Row | IC50 [1] [µM] | IC50 (Syk kinase) [µM] | Compound
1 | < 10 | 0.51 to 2.99 | COCCOc1ccc(-c2[nH]c3c(C#N)cnn3c2Nc2ccc(F)c(OC)c2)cc1OC [Compound 122]
2 | < 10 | < 0.5 | COc1cc(-c2[nH]c3c(C#N)cnn3c2Nc2ccc(CNC(=O)c3cccnc3OC)cc2)cc(OC)c1OC [Compound 153]
3 | < 10 | 0.51 to 2.99 | COc1cc(-c2[nH]c3c(C#N)cnn3c2Nc2ccc(CNC(=O)c3ccccn3)cc2)cc(OC)c1OC [Compound 149]
4 | < 10 | < 0.5 | COc1cc(Nc2c(-c3ccc(OCCO)c(OC)c3)[nH]c3c(C#N)cnn23)ccc1F [Compound 116]
5 | < 10 | < 0.5 | COCCOc1ccc(-c2[nH]c3c(C#N)cnn3c2Nc2ccc(OC)c(OC)c2)cc1OC [Compound 108]
6 | < 10 | 0.51 to 2.99 | COc1ccc(Nc2c(-c3ccc4[nH]ccc4c3)[nH]c3c(C#N)cnn23)cc1OC [Compound 5]
7 | < 10 | 0.51 to 2.99 | COc1ccc(Nc2c(-c3ccc(NC(C)=O)cc3)[nH]c3c(C#N)cnn23)cc1OC [Compound 2]
8 | < 10 | 0.51 to 2.99 | CSc1ccc(-c2[nH]c3c(C#N)cnn3c2Nc2cccc(NC(C)=O)c2)cc1 [Compound 33]
9 | > 5000 | 0.51 to 2.99 | COc1cc(-c2[nH]c3c(C#N)cnn3c2Nc2ccc(CNC(=O)c3ccc(C#N)nc3)cc2)cc(OC)c1OC [Compound 151]
10 | < 10 | 3 to 25 | COc1cccc(Nc2c(-c3ccc4cc[nH]c4c3)[nH]c3c(C#N)cnn23)c1 [Compound 44]
11 | 11 to 100 | 0.51 to 2.99 | COc1cc(Nc2c(-c3ccc4c(c3)NC(=O)CO4)[nH]c3c(C#N)cnn23)ccc1F [Compound 109]
12 | < 10 | 0.51 to 2.99 | COc1ccc(Nc2c(-c3ccc4c(c3)OCO4)[nH]c3c(C#N)cnn23)cc1OC [Compound 51]

The remaining lines, values behind:

Row | Compound | IC50 [1] [µM] | IC50 (Syk kinase) [µM]
13 | COc1ccc(Nc2c(-c3cc(OC)c(OC)c(OC)c3)[nH]c3c(C#N)cnn23)cc1F [Compound 127] | < 10 | < 0.5
14 | COc1cc(-c2[nH]c3c(C#N)cnn3c2Nc2cccc(NC(C)=O)c2)cc(OC)c1OC [Compound 30] | < 10 | 0.51 to 2.99
15 | COc1cc(-c2[nH]c3c(C#N)cnn3c2Nc2ccc3c(c2)OCCO3)cc(OC)c1OC [Compound 49] | < 10 | 0.51 to 2.99
16 | COc1ccc2c(-c3[nH]c4c(C#N)cnn4c3Nc3ccc(OC)c(OC)c3)c[nH]c2c1 [Compound 24] | < 10 | 0.51 to 2.99
17 | COC(=O)c1cccc(Nc2c(-c3ccc4c(c3)NC(=O)CO4)[nH]c3c(C#N)cnn23)c1 [Compound 10] | 11 to 100 | 0.51 to 2.99
18 | COc1ccc(Nc2c(-c3ccc(OCCO)c(OC)c3)[nH]c3c(C#N)cnn23)cc1OC [Compound 101] | < 10 | 0.51 to 2.99
19 | COc1ccc(Nc2c(-c3ccc(C(N)=O)cc3)[nH]c3c(C#N)cnn23)cc1OC [Compound 103] | 11 to 100 | < 0.5
20 | COc1cc(-c2[nH]c3c(C#N)cnn3c2Nc2ccc(Br)cc2)cc(OC)c1OC [Compound 23] | < 10 | 0.51 to 2.99
21 | COc1cc(-c2[nH]c3c(C#N)cnn3c2Nc2ccc(F)c(C)c2)cc(OC)c1OC [Compound 120] | < 10 | 0.51 to 2.99
22 | N#Cc1cnn2c(Nc3ccc(Br)cc3)c(-c3ccc4c(c3)NC(=O)CO4)[nH]c12 [Compound 45] | 101 to 5000 | 0.51 to 2.99
23 | COc1ccc2[nH]cc(-c3[nH]c4c(C#N)cnn4c3Nc3ccc(OC)c(OC)c3)c2c1 [Compound 4] | < 10 | 0.51 to 2.99
24 | CC(=O)Nc1ccc(-c2[nH]c3c(C#N)cnn3c2Nc2cccc(C(F)(F)F)c2)cc1 [Compound 3] | 11 to 100 | 0.51 to 2.99
25 | COC(=O)COc1ccc(-c2[nH]c3c(C#N)cnn3c2Nc2ccc(OC)c(OC)c2)cc1 [Compound 113] | < 10 | 0.51 to 2.99
26 | COc1cc(-c2[nH]c3c(C#N)cnn3c2Nc2ccc(CNC(=O)c3cccnc3C)cc2)cc(OC)c1OC [Compound 152] | > 5000 | < 0.5
27 | COc1cc(-c2[nH]c3c(C#N)cnn3c2Nc2ccc(CNC(C)=O)cc2)cc(OC)c1OC [Compound 72] | < 10 | 0.51 to 2.99
28 | COc1ccc(-c2[nH]c3c(C#N)cnn3c2Nc2cccc(NC(C)=O)c2)cc1OC [Compound 32] | < 10 | 0.51 to 2.99
29 | COc1ccc(Nc2c(-c3cccc(O)c3)[nH]c3c(C#N)cnn23)cc1OC [Compound 112] | < 10 | 0.51 to 2.99
30 | COc1cc(-c2[nH]c3c(C#N)cnn3c2Nc2ccc(CNC(=O)c3ccc(C)nc3)cc2)cc(OC)c1OC [Compound 154] | 11 to 100 | 0.51 to 2.99
31 | COc1cc(-c2[nH]c3c(C#N)cnn3c2Nc2cccc(CNC(=O)c3ccncc3)c2)cc(OC)c1OC [Compound 148] | 101 to 5000 | < 0.5
32 | COc1cccc(Nc2c(-c3cc(OC)c(OC)c(OC)c3)[nH]c3c(C#N)cnn23)c1 [Compound 14] | < 10 | 0.51 to 2.99
